From PMC6918687, “Pharmacological inhibition of TAK1, with the selective inhibitor takinib, alleviates clinical manifestation of arthritis in CIA mice” (Arthritis Research & Therapy, 2019)

What was measured:
CIA mice = assay: CIA mouse model: joint histopathology scores, day 36; format: in vivo, DBA/1 mice
Excerpt: After 1–2 days in fixative and 4–5 days in 5% formic acid for decalcification, tissues were trimmed and processed for paraffin embedding. Paws were embedded in paraffin in the frontal plane, and the knees were embedded with the patella facing down. Ankles, if left attached to the hind paw, were also embedded in the frontal plane but may be detached and sectioned in the sagittal plane for special purposes. Left/right pairs were typically embedded in the same block. Sections were cut and stained with toluidine blue.
The paw score criteria were as follows: 0 = Normal. 0.5 = Very minimal, affects only 1 joint or minimal multifocal periarticular infiltration of inflammatory cells. 1 = Minimal infiltration of inflammatory cells in synovium and periarticular tissue of affected joints. 2 = Mild infiltration of inflammatory cells. When referring to paws, generally restricted to affected joints (1–3 affected). 3 = Moderate infiltration with moderate edema. When referring to paws, restricted to affected joints, generally 3–4 joints and the wrist or ankle. 4 = Marked infiltration affecting most areas with marked edema, 1 or 2 unaffected joints may be present. 5 = Severe diffuse infiltration with severe edema affecting all joints (to some extent) and periarticular tissues.
The knee score criteria were as follows: 0 = Normal. 0.5 = Very minimal, affects only one area of the synovium or minimal multifocal periarticular infiltration of inflammatory cells. 1 = Minimal infiltration of inflammatory cells in synovium and periarticular tissue of affected synovial areas. 2 = Mild diffuse infiltration of inflammatory cells. 3 = Moderate diffuse infiltration of inflammatory cells. 4 = Marked diffuse infiltration of inflammatory cells. 5 = Severe diffuse infiltration of inflammatory cells.
The cartilage damage score criteria were as follows: 0 = Normal. 0.5 = Very minimal = Affects marginal zones only of one to several areas (knees) or joints (paws). 1 = Minimal = Generally minimal to mild loss of toluidine blue staining (proteoglycan) with no obvious chondrocyte loss or collagen disruption in affected joints/areas. 2 = Mild = Generally mild loss of toluidine blue staining (proteoglycan) with focal areas of chondrocyte loss and/or collagen disruption in some affected joints/areas. Paws may have one or two digit joints with near total to total loss of cartilage. 3 = Moderate = Generally moderate loss of toluidine blue staining (proteoglycan) with multifocal chondrocyte loss and/or collagen disruption in affected joints/areas. Paws may have three or four joints with near total or total loss. In the knee, some matrix remains on any affected surface with areas of severe matrix loss. 4 = Marked = Marked loss of toluidine blue staining (proteoglycan) with multifocal marked (depth to deep zone or tidemark) chondrocyte loss and/or collagen disruption in most joints with a few unaffected or mildly affected. In the knee, one surface with total to near total cartilage loss. 5 = Severe = Severe diffuse loss of toluidine blue staining (proteoglycan) with severe (depth to tide mark) chondrocyte loss and/or collagen disruption in most or all joints.

RA-FLS cells [1] = assay: Phospho-kinase proteome array, TNF-stimulated RA-FLS cells; format: cell-based, human; details: takinib 10 μM, TNF 30 ng/mL 30 min
Experimental: (§1) Rheumatoid arthritis fibroblast-like synoviocytes (RA-FLS) cells were prepared from surgical synovial samples at the University of Michigan as previously described. Cells were isolated from 4 individual patients (3 female, 1 male) and passaged no more than 2 times before use. Cells were cultured in CRML media, 10% FBS, 1% penicillin-streptomycin (PS), and 1% glutamate.
Briefly, 10^6 cells were plated and either no treatment (naïve) or pretreated with takinib (10 μM) or vehicle (DMSO) for 30 min prior to stimulation with TNF (30 ng/mL) for 30 min at 37 °C in 5% CO2 for phospho-kinase assay (R&D Systems). NF-κB and cytokine assays were performed as previously described; however, cells were incubated for 24 h post-TNF (30 ng/mL) or LPS (10 ng/mL) stimulation.

RA-FLS cells [2] = assay: Cytokine/chemokine proteome array, LPS-stimulated RA-FLS cells; format: cell-based, human; details: takinib 10 μM
Experimental: as §1
[…] Twenty-four hours after treatment, supernatant was added to Human Cytokine proteome array (R&D Systems). Cytokine kit was conducted in accordance with manufacturer protocol. Chemiluminescence was used to visualize protein quantities.

RA-FLS cells [3] = assay: Cell viability assay (Cell Titer Glo 2.0) in RA-FLS cells; format: cell-based
Experimental: RA-FLS cells were cultured and treated as previously described. Briefly, cells were plated at 80% confluency ~ 10^4 in 96-well plates and treated with either takinib at various concentrations or takinib + TNF (30 ng/mL) for 24 or 48 h and compared to vehicle-treated samples. Cell death was quantified using Cell Titer Glo 2.0 (Promega) according to the manufacturer’s protocol.

CCCn1/c(=N/C(=O)c2cccc(C(N)=O)c2)[nH]c2ccccc21 [takinib]
reduction of disease burden (CIA mice; 50 mg/kg daily (discussion)): ~ 40% | reduction of overall periosteal bone width vs vehicle (CIA mice; 50 mg/kg daily, all joints, p = 0.06): 35% | reduction of overall sum score of knees (CIA mice; 50 mg/kg daily, day 36): ~ 40% | cartilage damage score, all joints (CIA mice; 50 mg/kg daily, day 36, p = 0.013): significantly reduced | inflammation score, all joints (CIA mice; 50 mg/kg daily, day 36, p = 0.019): significantly reduced | reduction of overall joint pathology (all joints summed histological score) vs vehicle (CIA mice; 50 mg/kg daily, day 36, p = 0.02): ~ 30% | average reduction in disease pathology, hind paws and forepaws (CIA mice; 50 mg/kg daily, inflammation, pannus, cartilage damage, bone resorption, periosteal bone formation): 20–30% | histological score of cartilage damage, knees (CIA mice; 50 mg/kg daily, p = 0.0042): significantly reduced | histological score of inflammation, knees (CIA mice; 50 mg/kg daily, p = 0.0044): significantly reduced | reduction of bone resorption histological score, knees (CIA mice; 50 mg/kg daily, trend): ~ 40% | reduction of pannus histological score, knees (CIA mice; 50 mg/kg daily, trend): ~ 40% | overall sum histological score, hind paws (CIA mice; 50 mg/kg daily, vs vehicle, p = 0.0078): reduced | overall sum histological score, forepaws (CIA mice; 50 mg/kg daily, vs vehicle, p = 0.0091): reduced | AMPKα1 phosphorylation, array signal, Mean (RA-FLS cells [1]; n=4): 111.9564 | AMPKα2 phosphorylation, array signal, Mean (RA-FLS cells [1]; n=4): 187.6195 | Akt 1/2/3 (pS473) array signal, Mean (RA-FLS cells [1]; n=4): 39.51 | Akt 1/2/3 (pT308) array signal, Mean (RA-FLS cells [1]; n=4): 122.7503 | CREB phosphorylation, array signal, Mean (RA-FLS cells [1]; n=4): 232.3464 | Chk-2 phosphorylation, array signal, Mean (RA-FLS cells [1]; n=4): 86.85 | EGF R phosphorylation, array signal, Mean (RA-FLS cells [1]; n=4): 60.59 | ERK1/2 phosphorylation, array signal, Mean (RA-FLS cells [1]; n=4): 95.02 | FAK phosphorylation, array signal, Mean (RA-FLS cells [1]; n=4): 142.7814 | Fgr phosphorylation, array signal, Mean (RA-FLS cells [1]; n=4): 41.73 | Fyn phosphorylation, array signal, Mean (RA-FLS cells [1]; n=4): 78.9 | GSK-3α/β phosphorylation, array signal, Mean (RA-FLS cells [1]; n=4): 191.6206 | HSP27 phosphorylation, array signal, Mean (RA-FLS cells [1]; n=4): 202.916 | HSP60 array signal, Mean (RA-FLS cells [1]; n=4): 40.313 | Hck phosphorylation, array signal, Mean (RA-FLS cells [1]; n=4): 119.1771 | JNK 1/2/3 phosphorylation, array signal, Mean (RA-FLS cells [1]; n=4): 100.6526 | Lck phosphorylation, array signal, Mean (RA-FLS cells [1]; n=4): 44.393 | Lyn phosphorylation, array signal, Mean (RA-FLS cells [1]; n=4): 69.34 | MSK1/2 phosphorylation, array signal, Mean (RA-FLS cells [1]; n=4): 239.7188 | PDGF Rβ phosphorylation, array signal, Mean (RA-FLS cells [1]; n=4): 50.4425 | PLC-γ1 phosphorylation, array signal, Mean (RA-FLS cells [1]; n=4): 34.4325 | PRAS40 phosphorylation, array signal, Mean (RA-FLS cells [1]; n=4): 244.5596 | PYK2 phosphorylation, array signal, Mean (RA-FLS cells [1]; n=4): 87.75 | RSK1/2/3 phosphorylation, array signal, Mean (RA-FLS cells [1]; n=4): 168.3928 | STAT2 phosphorylation, array signal, Mean (RA-FLS cells [1]; n=4): 200.5311 | STAT3 (pS727) array signal, Mean (RA-FLS cells [1]; n=4): 95.82 | STAT3 (pY705) array signal, Mean (RA-FLS cells [1]; n=4): 85.93 | STAT5a phosphorylation, array signal, Mean (RA-FLS cells [1]; n=4): 99.7 | STAT5a/b phosphorylation, array signal, Mean (RA-FLS cells [1]; n=4): 146.267 | STAT5b phosphorylation, array signal, Mean (RA-FLS cells [1]; n=4): 154.004 | STAT66 phosphorylation, array signal, Mean (RA-FLS cells [1]; n=4): 147.8809 | Src phosphorylation, array signal, Mean (RA-FLS cells [1]; n=4): 176.3574 | TOR phosphorylation, array signal, Mean (RA-FLS cells [1]; n=4): 129.6068 | WNK1 phosphorylation, array signal, Mean (RA-FLS cells [1]; n=4): 218.9865 | Yes phosphorylation, array signal, Mean (RA-FLS cells [1]; n=4): 124.3601 | c-Jun phosphorylation, array signal, Mean (RA-FLS cells [1]; n=4): 196.6019 | eNOS phosphorylation, array signal, Mean (RA-FLS cells [1]; n=4): 41.6005 | p27 phosphorylation, array signal, Mean (RA-FLS cells [1]; n=4): 40.56 | p38α phosphorylation, array signal, Mean (RA-FLS cells [1]; n=4): 59.41 | p53 (pS15) array signal, Mean (RA-FLS cells [1]; n=4): 47.48 | p53 (pS46) array signal, Mean (RA-FLS cells [1]; n=4): 126.377 | p53 (pS392) array signal, Mean (RA-FLS cells [1]; n=4): 83.6435 | p70 S6 Kinase (T389) array signal, Mean (RA-FLS cells [1]; n=4): 78.65 | p70 S6 Kinase (site not given) array signal, Mean (RA-FLS cells [1]; n=4): 110.3643 | β-Catenin array signal, Mean (RA-FLS cells [1]; n=4): 57.16 | number of human kinases with significantly reduced phosphorylation (RA-FLS cells [1]; 45 phospho-kinase proteins profiled): 21 | MIF protein level (RA-FLS cells [2]): No significant changes | Serpin E1 protein level (RA-FLS cells [2]): No significant changes | CXCL1 level (RA-FLS cells [2]; p < 0.0003): significantly downregulated | CCL2 level (RA-FLS cells [2]; p < 0.0009): significantly downregulated | reduction of IL-8 (RA-FLS cells [2]; p < 0.006): 57% | reduction of IL-6 (RA-FLS cells [2]; p < 0.055): 33% | cell death vs vehicle control (RA-FLS cells [3]; 10 μM takinib alone, 48 h, p < 0.002): significant amount of cell death | cytotoxicity in the presence of TNF (RA-FLS cells [3]; takinib at varying doses + TNF 30 ng/mL, 24 and 48 h): Minimal cytotoxicity
